ChEMBL document CHEMBL1125238, “A new class of calcium antagonists. Synthesis and biological activity of 11-[(omega-aminoalkanoyl)amino]-6,6a,7,8,9,10,10a,11-octahydrodibenzo [b,e]thiepin derivatives” (J Med Chem, 1991)

Organism: Rattus norvegicus
Assay: Calcium antagonistic activity assessed against calcium-induced constriction of potassium-depolarized rat aorta.
Assay type: functional
Settings: not given

SMILES | pA2
O=C(CCCN1CCN(c2ccccc2)CC1)N[C@H]1c2ccccc2SC[C@@H]2CCCC[C@H]21.O=C(O)C(=O)O | 7.68
O=C(CCCN1CCN(c2ccc(F)cc2)CC1)N[C@H]1c2ccccc2[S+]([O-])C[C@@H]2CCCC[C@H]21 (stereo in doubt; 48) | 6.48

Same assay, conditions: Rattus norvegicus, Aorta; read-out: pA2 (converted)

SMILES | Kb [nM]
O=C(CCCCCN1CCN(c2ccccc2)CC1)N[C@H]1c2ccccc2SC[C@@H]2CCCC[C@H]21 | 30.2
O=C(CCN1CCN(c2ccccc2)CC1)N[C@H]1c2ccccc2SC[C@@H]2CCCC[C@H]21 | 41.7
Cc1ccc(N2CCN(CCCC(=O)N[C@H]3c4ccccc4SC[C@@H]4CCCC[C@H]43)CC2)cc1 | 70.8
O=C(CCCN1CCN(C/C=C/c2ccccc2)CC1)N[C@H]1c2ccccc2SC[C@@H]2CCCC[C@H]21 | 75.9
O=C(CN1CCN(c2ccccc2)CC1)N[C@H]1c2ccccc2SC[C@@H]2CCCC[C@H]21 | 105
O=C(CCCN1CCN(c2ccc(F)cc2)CC1)N[C@H]1c2ccccc2OC[C@@H]2CCCC[C@H]21 | 138
O=C(CCCN1CCN(Cc2ccc([N+](=O)[O-])cc2)CC1)N[C@H]1c2ccccc2SC[C@@H]2CCCC[C@H]21 | 19.1
O=C(CCCN1CCN(c2ccc(F)cc2)CC1)N[C@@H]1c2ccccc2SC[C@@H]2CCCC[C@@H]21 | 18.6
O=C(CCCN1CCN(C(c2ccccc2)c2ccccc2)CC1)N[C@H]1c2ccccc2SC[C@@H]2CCCC[C@H]21 | 40.7
O=C(CCCN1CCN(Cc2ccccc2)CC1)N[C@H]1c2ccccc2SC[C@@H]2CCCC[C@H]21 | 15.8
O=C(CCCN1CCN(c2ccc(O)cc2)CC1)N[C@H]1c2ccccc2SC[C@@H]2CCCC[C@H]21 | 69.2
O=C(CCCN1CCN(c2ccc(Cl)cc2)CC1)N[C@H]1c2ccccc2SC[C@@H]2CCCC[C@H]21 | 15.1
O=C(CCCN1CCN(c2ccc(F)cc2)CC1)N[C@H]1c2ccccc2SC[C@@H]2CCCC[C@H]21 | 6.92
O=C(CCCN1CCN(c2ccc(F)cc2)CC1)N[C@H]1c2cc(Cl)ccc2SC[C@@H]2CCCC[C@H]21 | 81.3
O=C(CCCN1CCN(c2ccc(F)cc2)CC1)N[C@H]1c2ccccc2SC[C@@H]2CCCC[C@@H]21 | 7.08
O=C(CCCN1CCN(Cc2cccc(F)c2)CC1)N[C@H]1c2ccccc2SC[C@@H]2CCCC[C@H]21 | 30.2
COc1ccccc1N1CCN(CCCC(=O)N[C@H]2c3ccccc3SC[C@@H]3CCCC[C@H]32)CC1 | 46.8
O=C(CCCN1CCN(c2cccc3ccccc23)CC1)N[C@H]1c2ccccc2SC[C@@H]2CCCC[C@H]21 | 57.5

SMILES | Kb [nM]
O=C(CCCN1CCN(Cc2ccc(F)cc2)CC1)N[C@H]1c2ccccc2SC[C@@H]2CCCC[C@H]21 | 57.5
O=C(CCCN1CCN(C(=O)c2ccccc2)CC1)N[C@H]1c2ccccc2SC[C@@H]2CCCC[C@H]21 | 97.7
O=C(CCCN1CCN(c2ccc(F)cc2)CC1)N[C@H]1c2cc(F)ccc2SC[C@@H]2CCCC[C@H]21 | 77.6
O=C(CCCN1CCN(Cc2ccc(O)cc2)CC1)N[C@H]1c2ccccc2SC[C@@H]2CCCC[C@H]21 | 70.8
O=C(CCCCN1CCN(c2ccccc2)CC1)N[C@H]1c2ccccc2SC[C@@H]2CCCC[C@H]21 | 28.2
O=C(CCCN1CCN(c2ccc(C(F)(F)F)cc2)CC1)N[C@H]1c2ccccc2SC[C@@H]2CCCC[C@H]21 | 8.91
CN(C(=O)CCN1CCN(c2ccccc2)CC1)[C@H]1c2ccccc2SC[C@@H]2CCCC[C@H]21 | 148
COc1ccc(N2CCN(CCCC(=O)N[C@H]3c4ccccc4SC[C@@H]4CCCC[C@H]43)CC2)cc1 | 25.1
O=C(CCCN1CCN(c2cccc(F)c2)CC1)N[C@H]1c2ccccc2SC[C@@H]2CCCC[C@H]21 | 15.1
O=C(CCCN1CCN(C2CCCCC2)CC1)N[C@H]1c2ccccc2SC[C@@H]2CCCC[C@H]21 | 45.7
COc1ccc(CN2CCN(CCCC(=O)N[C@H]3c4ccccc4SC[C@@H]4CCCC[C@H]43)CC2)cc1 | 56.2
COc1ccc2c(c1)[C@H](NC(=O)CCCN1CCN(c3ccc(F)cc3)CC1)[C@@H]1CCCC[C@H]1CS2 | 17
c1ccc(N2CCN(CCCN[C@H]3c4ccccc4SC[C@@H]4CCCC[C@H]43)CC2)cc1 | 158
O=C(CCCN1CCN(Cc2ccc(Cl)cc2)CC1)N[C@H]1c2ccccc2SC[C@@H]2CCCC[C@H]21 | 26.9
O=C(CCCN1CCN(c2ccc(F)cc2)CC1)N[C@@H]1c2ccccc2SC[C@@H]2CCCC[C@H]21 | 26.9
Cc1ccc2c(c1)[C@H](NC(=O)CCCN1CCN(c3ccc(F)cc3)CC1)[C@@H]1CCCC[C@H]1CS2 | 141
O=C(CCCN1CCN(CCc2ccccc2)CC1)N[C@H]1c2ccccc2SC[C@@H]2CCCC[C@H]21 | 72.4
O=C(CCCN1CCN(c2ccc(F)cc2)CC1)N[C@H]1c2ccccc2[S+]([O-])C[C@@H]2CCCC[C@H]21 (stereo in doubt; 49) | 324
